# Tests used:
# [1] = molecular target: human Class I PI3 kinase β (Homo sapiens (Human), UniProt P42338); test: PI3-Kinase Promega ADP-Glo Max assay, β isoform; type: biochemical; conditions: 40 nM kinase, 3 mM ATP, 500 uM diC8-PtdInsP; read-out: Promega β PI3K IC50
# Method: Promega ADP-Glo Max assay kit (Cat. No. V7002) was utilized to determine IC50 values for α, β, δ and γ isoforms of human Class I PI3 kinases (Millipore). […] Reactions were incubated at room temperature for 2 hours followed by addition of 25 uL of stop solution. After a 40-minute incubation at room temperature, 50 uL of Promega detection mix was added followed by incubation for 1 hour at room temperature. Plates were then read on Envision plate reader in luminescence mode. Data was converted to % inhibition using the following equation below:
# p110 γ (RAW264.7 cells) = p110 γ (RAW264.7 cells) (Mus musculus (Mouse), UniProt Q9JHG7); test: PI3K-γ selective cellular assay: phospho-AKT in C5a stimulated RAW264.7 macrophages; type: cell-based; conditions: serum-starved RAW264.7 cells stimulated with C5a
# Method: Certain compounds provided herein were tested in RAW 264.7 cell model using procedures as described above.
# [2] = molecular target: human Class I PI3 kinase δ (Homo sapiens (Human), UniProt O00329); test: PI3-Kinase Promega ADP-Glo Max assay, δ isoform; type: biochemical; conditions: 20 nM kinase, 3 mM ATP, 500 uM diC8-PtdInsP; read-out: Promega δ PI3K IC50
# Sequence of human Class I PI3 kinase δ (O00329 whole entry, canonical isoform): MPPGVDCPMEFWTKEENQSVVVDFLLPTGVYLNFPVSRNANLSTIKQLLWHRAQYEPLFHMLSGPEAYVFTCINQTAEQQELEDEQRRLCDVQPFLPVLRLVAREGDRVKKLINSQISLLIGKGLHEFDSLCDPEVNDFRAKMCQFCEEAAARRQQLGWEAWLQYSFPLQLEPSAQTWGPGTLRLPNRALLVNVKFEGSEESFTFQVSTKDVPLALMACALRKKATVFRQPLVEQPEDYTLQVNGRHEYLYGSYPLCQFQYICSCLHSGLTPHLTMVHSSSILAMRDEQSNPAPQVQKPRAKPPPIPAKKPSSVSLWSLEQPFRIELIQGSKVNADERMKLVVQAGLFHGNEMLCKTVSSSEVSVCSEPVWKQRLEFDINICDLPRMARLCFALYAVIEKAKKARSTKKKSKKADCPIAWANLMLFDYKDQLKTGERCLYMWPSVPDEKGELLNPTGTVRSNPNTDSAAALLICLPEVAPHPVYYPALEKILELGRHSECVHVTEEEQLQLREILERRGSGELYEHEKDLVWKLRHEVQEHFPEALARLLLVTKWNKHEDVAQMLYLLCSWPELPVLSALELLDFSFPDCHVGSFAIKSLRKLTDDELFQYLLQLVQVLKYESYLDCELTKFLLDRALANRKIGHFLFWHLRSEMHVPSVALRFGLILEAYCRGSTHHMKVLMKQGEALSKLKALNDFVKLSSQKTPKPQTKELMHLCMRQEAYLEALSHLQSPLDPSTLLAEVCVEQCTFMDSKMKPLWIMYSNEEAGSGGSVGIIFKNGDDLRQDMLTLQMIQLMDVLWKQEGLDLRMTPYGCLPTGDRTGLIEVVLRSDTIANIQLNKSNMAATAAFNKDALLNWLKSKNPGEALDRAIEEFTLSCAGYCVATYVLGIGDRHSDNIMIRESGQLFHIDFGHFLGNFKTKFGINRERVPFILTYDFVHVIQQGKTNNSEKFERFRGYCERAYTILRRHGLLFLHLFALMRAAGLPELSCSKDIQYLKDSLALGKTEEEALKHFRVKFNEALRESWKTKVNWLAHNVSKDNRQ
# Sequence of human Class I PI3 kinase δ (P27986 whole entry partner, canonical isoform): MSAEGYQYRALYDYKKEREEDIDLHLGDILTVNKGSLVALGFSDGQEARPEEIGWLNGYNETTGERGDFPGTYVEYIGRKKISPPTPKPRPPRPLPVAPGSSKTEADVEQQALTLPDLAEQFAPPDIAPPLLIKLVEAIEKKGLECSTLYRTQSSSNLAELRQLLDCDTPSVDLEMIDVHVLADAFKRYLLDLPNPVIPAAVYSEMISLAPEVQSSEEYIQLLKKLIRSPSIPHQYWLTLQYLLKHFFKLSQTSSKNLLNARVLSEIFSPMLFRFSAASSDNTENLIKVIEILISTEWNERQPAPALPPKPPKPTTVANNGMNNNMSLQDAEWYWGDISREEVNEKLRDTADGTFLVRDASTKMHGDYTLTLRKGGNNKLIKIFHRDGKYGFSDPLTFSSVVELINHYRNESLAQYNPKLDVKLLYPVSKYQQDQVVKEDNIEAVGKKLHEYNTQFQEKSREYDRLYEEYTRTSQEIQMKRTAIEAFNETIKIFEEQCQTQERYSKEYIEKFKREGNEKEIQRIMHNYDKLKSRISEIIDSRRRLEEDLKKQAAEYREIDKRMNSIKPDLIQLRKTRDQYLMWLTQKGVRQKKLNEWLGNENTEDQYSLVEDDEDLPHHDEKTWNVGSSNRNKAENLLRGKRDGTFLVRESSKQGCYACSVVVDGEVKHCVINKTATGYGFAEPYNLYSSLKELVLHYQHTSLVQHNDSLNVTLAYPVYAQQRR
# Method: Promega ADP-Glo Max assay kit (Cat. No. V7002) was utilized to determine IC50 values for α, β, δ and γ isoforms of human Class I PI3 kinases (Millipore). […] Reactions were incubated at room temperature for 2 hours followed by addition of 25 uL of stop solution. After a 40-minute incubation at room temperature, 50 uL of Promega detection mix was added followed by incubation for 1 hour at room temperature. Plates were then read on Envision plate reader in luminescence mode. Data was converted to % inhibition using the following equation below: [formula] where S is the sample luminescence, Pos is a positive control without added PI3K, Neg is the negative control without added compound. Data was then plotted as % inhibition vs compound concentration.
# [3] = molecular target: human Class I PI3 kinase α (Homo sapiens (Human), UniProt P42336); test: PI3-Kinase Promega ADP-Glo Max assay, α isoform; type: biochemical; conditions: 20 nM kinase, 3 mM ATP, 500 uM diC8-PtdInsP; read-out: Promega α PI3K IC50
# [4] = molecular target: human Class I PI3 kinase γ (Homo sapiens (Human), UniProt P48736); test: PI3-Kinase Promega ADP-Glo Max assay, γ isoform; type: biochemical; conditions: 40 nM kinase, 3 mM ATP, 500 uM diC8-PtdInsP; read-out: Promega γ PI3K IC50
# Sequence of human Class I PI3 kinase γ (P48736 whole entry, canonical isoform): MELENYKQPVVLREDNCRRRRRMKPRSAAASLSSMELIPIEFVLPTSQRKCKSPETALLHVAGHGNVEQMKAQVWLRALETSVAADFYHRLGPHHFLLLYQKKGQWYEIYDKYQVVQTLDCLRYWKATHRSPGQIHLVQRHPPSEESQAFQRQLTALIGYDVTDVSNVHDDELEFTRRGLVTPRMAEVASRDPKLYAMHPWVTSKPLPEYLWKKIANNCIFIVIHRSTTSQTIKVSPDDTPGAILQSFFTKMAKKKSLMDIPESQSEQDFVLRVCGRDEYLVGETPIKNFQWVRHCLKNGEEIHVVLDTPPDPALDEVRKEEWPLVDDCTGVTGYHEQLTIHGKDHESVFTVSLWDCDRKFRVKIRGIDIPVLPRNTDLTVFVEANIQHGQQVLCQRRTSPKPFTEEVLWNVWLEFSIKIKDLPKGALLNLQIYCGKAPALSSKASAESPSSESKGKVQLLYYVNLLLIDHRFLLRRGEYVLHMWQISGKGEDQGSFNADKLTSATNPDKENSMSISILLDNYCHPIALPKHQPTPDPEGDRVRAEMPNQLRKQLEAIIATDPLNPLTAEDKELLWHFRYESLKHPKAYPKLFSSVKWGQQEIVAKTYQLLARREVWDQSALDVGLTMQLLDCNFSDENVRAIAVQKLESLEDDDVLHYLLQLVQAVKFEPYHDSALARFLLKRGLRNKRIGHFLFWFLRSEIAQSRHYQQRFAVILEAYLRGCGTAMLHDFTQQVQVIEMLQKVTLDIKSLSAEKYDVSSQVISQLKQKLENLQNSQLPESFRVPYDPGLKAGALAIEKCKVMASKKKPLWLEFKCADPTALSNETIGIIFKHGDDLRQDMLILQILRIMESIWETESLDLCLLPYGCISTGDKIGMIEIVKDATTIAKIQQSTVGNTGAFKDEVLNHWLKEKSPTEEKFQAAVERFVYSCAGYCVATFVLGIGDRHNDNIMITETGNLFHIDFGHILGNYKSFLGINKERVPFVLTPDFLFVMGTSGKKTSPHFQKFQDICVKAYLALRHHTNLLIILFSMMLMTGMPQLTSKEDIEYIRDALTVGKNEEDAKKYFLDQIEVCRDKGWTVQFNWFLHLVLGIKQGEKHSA
# Method: Promega ADP-Glo Max assay kit (Cat. No. V7002) was utilized to determine IC50 values for α, β, δ and γ isoforms of human Class I PI3 kinases (Millipore). Samples of kinase (20 nM α or δ, 40 nM β or γ isoform) were incubated with compound for 15 minutes at room temperature in reaction buffer (15 mM HEPES pH 7.4, 20 mM NaCl, 1 mM EGTA, 0.02% Tween 20, 10 mM MgCl2, 0.2 mg/mL bovine-γ-globulins) followed by addition of ATP/diC8-PtdInsP mixture to give final concentrations of 3 mM ATP and 500 uM diC8-PtdInsP. Reactions were incubated at room temperature for 2 hours followed by addition of 25 uL of stop solution. After a 40-minute incubation at room temperature, 50 uL of Promega detection mix was added followed by incubation for 1 hour at room temperature. Plates were then read on Envision plate reader in luminescence mode. Data was converted to % inhibition using the following equation below:
# [formula] where S is the sample luminescence, Pos is a positive control without added PI3K, Neg is the negative control without added compound. Data was then plotted as % inhibition vs compound concentration.
# Certain compounds provided herein were tested in PI3-Kinase Promega Assay using procedures as described above to determine IC50 values for α, β, δ and/or γ isoforms.
# p110 δ (RAJI cells) = p110 δ (RAJI cells) (Homo sapiens (Human), UniProt O00329); test: PI3K-δ selective cellular assay: phospho-AKT in anti-human IgM stimulated RAJI cells; type: cell-based; conditions: serum-starved RAJI cells stimulated with anti-human IgM
# Sequence of p110 δ (RAJI cells) (O00329 whole entry): as the sequence (O00329 whole entry, canonical isoform) above
# Sequence of p110 δ (RAJI cells) (P27986 whole entry partner): as the sequence (P27986 whole entry partner, canonical isoform) above
# Description: A compound's ability in selectively inhibiting PI3K-δ can be assessed using RAJI cells, i.e., B lymphocyte cells derived from lymphoma patients. Briefly, serum-starved RAJI cells are stimulated with anti-human IgM, thereby causing signaling through the B-cell receptors, as described in, for example, He et al., Leukemia Research (2009) 33: 798-802. B-cell receptor signaling is important for the activation, differentiation, and survival of B cells and certain B-cell derived cancers. Reduction of phospho-AKT is indicative of compounds that may inhibit B-cell proliferation and function in certain diseases. […] Certain compounds provided herein were tested in RAJI cell model using procedures as described above.
# Sequence of human Class I PI3 kinase β (P42338 whole entry, looked up, canonical isoform): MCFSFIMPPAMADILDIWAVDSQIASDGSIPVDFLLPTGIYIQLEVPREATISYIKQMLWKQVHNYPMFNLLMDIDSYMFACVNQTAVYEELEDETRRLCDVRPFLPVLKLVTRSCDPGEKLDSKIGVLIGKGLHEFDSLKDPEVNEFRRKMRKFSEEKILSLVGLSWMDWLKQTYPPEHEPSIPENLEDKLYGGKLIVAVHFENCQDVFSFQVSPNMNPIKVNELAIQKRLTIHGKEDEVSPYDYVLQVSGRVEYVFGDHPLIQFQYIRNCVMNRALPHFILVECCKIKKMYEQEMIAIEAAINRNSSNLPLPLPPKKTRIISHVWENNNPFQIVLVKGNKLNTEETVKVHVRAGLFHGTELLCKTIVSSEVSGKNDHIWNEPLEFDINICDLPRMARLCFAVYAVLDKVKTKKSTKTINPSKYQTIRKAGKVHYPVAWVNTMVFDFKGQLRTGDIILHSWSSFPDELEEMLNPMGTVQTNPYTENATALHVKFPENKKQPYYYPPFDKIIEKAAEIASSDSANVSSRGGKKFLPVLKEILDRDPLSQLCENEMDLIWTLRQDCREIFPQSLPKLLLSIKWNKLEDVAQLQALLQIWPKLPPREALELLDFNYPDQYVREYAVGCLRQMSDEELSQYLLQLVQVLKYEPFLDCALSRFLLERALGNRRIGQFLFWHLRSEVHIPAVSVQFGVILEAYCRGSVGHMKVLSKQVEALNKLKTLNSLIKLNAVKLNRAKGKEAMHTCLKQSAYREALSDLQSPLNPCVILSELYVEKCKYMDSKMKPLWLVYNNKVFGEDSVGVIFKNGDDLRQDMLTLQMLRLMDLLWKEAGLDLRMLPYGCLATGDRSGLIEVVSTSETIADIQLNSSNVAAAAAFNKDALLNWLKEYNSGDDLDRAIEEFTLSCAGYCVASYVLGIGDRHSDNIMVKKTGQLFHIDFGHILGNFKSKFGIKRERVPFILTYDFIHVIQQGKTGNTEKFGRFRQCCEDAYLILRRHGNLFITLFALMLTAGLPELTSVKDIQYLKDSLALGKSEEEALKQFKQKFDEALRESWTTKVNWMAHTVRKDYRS
# Sequence of human Class I PI3 kinase β (P27986 whole entry partner, looked up, canonical isoform): as the sequence (P27986 whole entry partner, canonical isoform) above
SMILES,IC50 [1] [nM],IC50 (p110 γ (RAW264.7 cells)) [nM],IC50 [2] [nM],IC50 [3] [nM],IC50 [4] [nM],IC50 (p110 δ (RAJI cells)) [nM]
C[C@H](NC(=O)c1c(N)nn2cccnc12)c1cc2cccc(Cl)c2c(=O)n1CCS(=O)(=O)N(C)C [Compound 58],500 to 1000,1 to 10,100 to 500,500 to 1000,10 to 100,10 to 100
CCS(=O)(=O)NCCn1c([C@H](C)NC(=O)c2c(N)nn3cccnc23)cc2cccc(Cl)c2c1=O [Compound 61],100 to 500,100 to 500,100 to 500,1000 to 10000,10 to 100,10 to 100
C#CCCn1c([C@H](C)NC(=O)c2c(N)nn3cccnc23)cc2cccc(Cl)c2c1=O [Compound 62],500 to 1000,10 to 100,1000 to 10000,1000 to 10000,500 to 1000,100 to 500
C[C@H](NC(=O)c1c(N)nn2cccnc12)c1cc2cccc(Cl)c2c(=O)n1CCc1cnn[nH]1 [Compound 63],100 to 500,500 to 1000,1000 to 10000,1000 to 10000,500 to 1000,100 to 500
C[C@H](NC(=O)c1c(N)nn2cccnc12)c1cc2cccc(Cl)c2c(=O)n1CCc1noc(C(C)(C)C)n1 [Compound 64],1000 to 10000,100 to 500,1000 to 10000,1000 to 10000,1000 to 10000,100 to 500
CC(C)C(=O)Cc1cccc2cc([C@H](C)NC(=O)c3c(N)nn4cccnc34)n(-c3ccccc3)c(=O)c12 [Compound 65],1000 to 10000,10 to 100,1000 to 10000,1000 to 10000,1000 to 10000,100 to 500
C[C@H](NC(=O)c1c(N)nn2cccnc12)c1cc2cccc(OCc3cnn(C)c3)c2c(=O)n1-c1ccccc1 [Compound 67],1000 to 10000,10 to 100,1000 to 10000,1000 to 10000,500 to 1000,1000 to 10000
C[C@H](NC(=O)c1c(N)nn2cccnc12)c1cc2cccc(Cl)c2c(=O)n1-c1ccccc1O [Compound 68],100 to 500,1 to 10,500 to 1000,1000 to 10000,10 to 100,1 to 10
C[C@H](NC(=O)c1c(N)nn2cccnc12)c1cc2cccc(Cl)c2c(=O)n1-c1cccc(O)c1 [Compound 69],10 to 100,10 to 100,100 to 500,1000 to 10000,10 to 100,1 to 10
C[C@H](NC(=O)c1c(N)nn2cccnc12)c1cc2cccc(Cl)c2c(=O)n1-c1ccc(O)cc1 [Compound 70],1 to 10,10 to 100,100 to 500,1000 to 10000,10 to 100,1 to 10
C[C@H](NC(=O)c1c(N)nn2cccnc12)c1cc2cccc(Cl)c2c(=O)n1C1CCC1 [Compound 71],500 to 1000,10 to 100,1000 to 10000,1000 to 10000,1000 to 10000,10 to 100
C[C@H](NC(=O)c1c(N)nn2cccnc12)c1cc2cccc(Cl)c2c(=O)n1C1CC(NS(C)(=O)=O)C1 (stereo partly drawn) [Compound 72],100 to 500,100 to 500,1000 to 10000,1000 to 10000,1000 to 10000,10 to 100
Cc1ccccc1-n1c([C@H](C)NC(=O)c2c(N)nn3cccnc23)cc2cccc(Cl)c2c1=O [Compound 73],100 to 500,1 to 10,500 to 1000,1000 to 10000,100 to 500,10 to 100
Cc1cccc(-n2c([C@H](C)NC(=O)c3c(N)nn4cccnc34)cc3cccc(Cl)c3c2=O)c1 [Compound 74],1000 to 10000,10 to 100,500 to 1000,1000 to 10000,100 to 500,10 to 100
Cc1ccc(-n2c([C@H](C)NC(=O)c3c(N)nn4cccnc34)cc3cccc(Cl)c3c2=O)cc1 [Compound 75],1000 to 10000,10 to 100,1000 to 10000,1000 to 10000,100 to 500,10 to 100
C[C@H](NC(=O)c1c(N)nn2cccnc12)c1cc2cccc(Cl)c2c(=O)n1-c1cccnc1 [Compound 76],500 to 1000,10 to 100,1000 to 10000,1000 to 10000,100 to 500,100 to 500
C[C@H](NC(=O)c1c(N)nn2cccnc12)c1cc2cccc(Cl)c2c(=O)n1-c1cccc(S(C)(=O)=O)c1 [Compound 77],500 to 1000,100 to 500,1000 to 10000,1000 to 10000,500 to 1000,100 to 500
C[C@H](NC(=O)c1c(N)nn2cccnc12)c1cc2cccc(Cl)c2c(=O)n1-c1ccccc1NS(C)(=O)=O [Compound 78],1000 to 10000,10 to 100,1000 to 10000,1000 to 10000,100 to 500,100 to 500
C[C@H](NC(=O)c1c(N)nn2cccnc12)c1cc2cccc(Cl)c2c(=O)n1-c1cccc(NS(C)(=O)=O)c1 [Compound 79],100 to 500,100 to 500,500 to 1000,1000 to 10000,100 to 500,10 to 100
C[C@H](NC(=O)c1c(N)nn2cccnc12)c1cc2cccc(Cl)c2c(=O)n1-c1ccc(S(C)(=O)=O)cc1 [Compound 80],1000 to 10000,1000 to 10000,1000 to 10000,1000 to 10000,1000 to 10000,500 to 1000
C[C@H](NC(=O)c1c(N)nn2cccnc12)c1cc2cccc(Cl)c2c(=O)n1-c1ccc(NS(C)(=O)=O)cc1 [Compound 81],500 to 1000,1000 to 10000,1000 to 10000,1000 to 10000,1000 to 10000,100 to 500
Cc1ccnc2c(C(=O)N[C@@H](C)c3cc4cccc(Cl)c4c(=O)n3-c3ccccc3)c(N)nn12 [Compound 82],1000 to 10000,10 to 100,1000 to 10000,1000 to 10000,500 to 1000,10 to 100
